Source: ChEMBL document CHEMBL1201862, “PubChem BioAssay data set” (2004)
Activity calls are given as the source filed them.

Tests used:
[1] = molecular target: T1, Oxysterols receptor LXR-beta (Homo sapiens, UniProt P55055); assay: LXR agonists, Gal4 luciferase reporter, dose response, counter-screen for ssDAF-12 agonist project, cell-based, luminescence, HEK293, S. stercoralis campaign (AID 720737); format: functional; conditions: read-out: IC50 (the source's name)
T1 sequence (P55055 whole entry): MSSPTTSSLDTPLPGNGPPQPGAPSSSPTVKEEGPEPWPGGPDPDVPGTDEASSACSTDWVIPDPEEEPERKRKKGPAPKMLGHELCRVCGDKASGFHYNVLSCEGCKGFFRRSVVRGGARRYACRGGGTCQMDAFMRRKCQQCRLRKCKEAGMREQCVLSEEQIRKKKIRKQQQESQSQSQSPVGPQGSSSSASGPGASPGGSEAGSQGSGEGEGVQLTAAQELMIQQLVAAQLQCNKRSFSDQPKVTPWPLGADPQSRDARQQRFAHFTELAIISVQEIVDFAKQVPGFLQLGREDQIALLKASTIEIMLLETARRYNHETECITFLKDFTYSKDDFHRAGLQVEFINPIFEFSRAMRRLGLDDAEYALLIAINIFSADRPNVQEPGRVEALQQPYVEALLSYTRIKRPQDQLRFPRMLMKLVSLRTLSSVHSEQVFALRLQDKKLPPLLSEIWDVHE

[2] = molecular target: T1, Oxysterols receptor LXR-beta; format: functional, cell-based
[3] = Luminescence-based cell-based high throughput dose response assay to identify activators of the DAF-12 from the parasite S. stercoralis (ssDAF-12).; format: functional
[4] = cells
[5] = viability loss in human Jurkat cells – cell-based, luminescence, cytotoxicity control for P. falciparum gametocyte viability project, dose response (AID 1117277); format: functional;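 note: potency reflects loss of cellular ATP meaning fewer viable cells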
[6] = viability inhibitors of stage V gametocytes – luminescence, dose response (AID 1117278); format: functional, cell-based;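 note: gametocytes exposed to compound for 24 hours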
[7] = test system: HEK293; assay: NOD2 signaling inhibitors in MDP-stimulated cells, cell-based, uHTS, luminescence (AID 2001); format: functional; conditions: Homo sapiens
[8] = test system: HEK293; assay: cells; format: functional, cell-based; conditions: Homo sapiens
[9] = test system: HEK293; assay: inhibition of NOD1-driven NF-kB reporter – cell-based, luminescence, uHTS, primary screen (AID 1578); format: functional; conditions: Homo sapiens
[10] = test system: HEK293; assay: cells; format: functional, cell-based; conditions: Homo sapiens; remark: listed apart in the source
[11] = viability loss in Vero cells – cytotoxicity control for Vif-APOBEC3G degradation inhibitor project, dose response (AID 1117358); format: functional; conditions: Vero
[12] = molecular target: T2, Aminopeptidase N (Plasmodium falciparum FcB1/Columbia, UniProt O96935); assay: malaria alanyl aminopeptidase activity blockers – biochemical, fluorogenic H-Leu-NHMec substrate, 1536-well (AID 1445); parameters: species or system Plasmodium falciparum 3D7, 3D7
T2 sequence (O96935 whole entry): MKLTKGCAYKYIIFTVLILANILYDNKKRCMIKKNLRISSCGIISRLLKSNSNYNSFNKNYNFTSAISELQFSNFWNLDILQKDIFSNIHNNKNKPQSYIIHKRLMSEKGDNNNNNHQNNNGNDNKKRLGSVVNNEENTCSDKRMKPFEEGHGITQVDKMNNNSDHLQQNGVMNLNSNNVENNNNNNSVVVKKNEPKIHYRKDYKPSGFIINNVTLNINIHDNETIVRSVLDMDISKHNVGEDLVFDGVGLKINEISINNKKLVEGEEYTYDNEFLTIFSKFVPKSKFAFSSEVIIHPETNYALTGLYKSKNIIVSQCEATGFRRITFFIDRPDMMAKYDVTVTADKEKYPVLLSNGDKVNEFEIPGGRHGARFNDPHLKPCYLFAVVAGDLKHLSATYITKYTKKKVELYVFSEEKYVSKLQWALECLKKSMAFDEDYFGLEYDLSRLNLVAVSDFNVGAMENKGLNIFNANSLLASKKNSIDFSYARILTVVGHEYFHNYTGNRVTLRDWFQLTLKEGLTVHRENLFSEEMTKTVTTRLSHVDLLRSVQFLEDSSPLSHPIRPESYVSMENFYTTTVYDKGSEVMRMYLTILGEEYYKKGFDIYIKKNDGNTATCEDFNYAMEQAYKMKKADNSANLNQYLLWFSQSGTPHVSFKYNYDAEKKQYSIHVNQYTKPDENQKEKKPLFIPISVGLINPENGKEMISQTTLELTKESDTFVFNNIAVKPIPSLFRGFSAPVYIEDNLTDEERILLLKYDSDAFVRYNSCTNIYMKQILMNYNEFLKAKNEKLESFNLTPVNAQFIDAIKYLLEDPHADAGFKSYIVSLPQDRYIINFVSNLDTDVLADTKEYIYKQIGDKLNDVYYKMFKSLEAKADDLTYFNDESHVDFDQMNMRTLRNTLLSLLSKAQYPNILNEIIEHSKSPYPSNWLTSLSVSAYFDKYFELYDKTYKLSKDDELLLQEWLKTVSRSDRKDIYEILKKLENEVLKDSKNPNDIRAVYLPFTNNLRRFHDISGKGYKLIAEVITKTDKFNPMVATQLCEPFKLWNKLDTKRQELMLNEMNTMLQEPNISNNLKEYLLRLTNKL

[13] = molecular target: T3, RNA-binding protein pos-1 (Caenorhabditis elegans, UniProt G5EF15); assay: disruptors of C. elegans POS-1 RNA interaction – biochemical, fluorescence polarization, dose response (AID 1964);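 note: purified POS-1 fused to maltose binding protein made in E. coli; potency of compounds blocking POS-1 binding to fluorescent RNA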
T3 sequence (G5EF15 whole entry): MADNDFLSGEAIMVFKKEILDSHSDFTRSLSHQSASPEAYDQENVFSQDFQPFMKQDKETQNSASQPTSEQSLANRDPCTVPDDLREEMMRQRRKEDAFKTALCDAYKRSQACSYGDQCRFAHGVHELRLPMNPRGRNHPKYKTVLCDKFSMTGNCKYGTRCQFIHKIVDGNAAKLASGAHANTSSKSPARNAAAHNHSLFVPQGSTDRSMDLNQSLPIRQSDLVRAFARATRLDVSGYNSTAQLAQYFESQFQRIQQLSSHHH

[14] = molecular target: RNA-editing ligase 1, mitochondrial (Trypanosoma brucei brucei, UniProt P86926); assay: inhibition of trypanosome RNA editing ligase – biochemical, fluorescence, Trypanosoma brucei, dose response (AID 1117295); format: functional
[15] = molecular target: T4, Zinc finger protein mex-5 (Caenorhabditis elegans, UniProt Q9XUB2); assay: potency of MEX-5 RNA-binding blockers – biochemical, C. elegans, fluorescence polarization, dose response (AID 1960)
T4 sequence (Q9XUB2 whole entry): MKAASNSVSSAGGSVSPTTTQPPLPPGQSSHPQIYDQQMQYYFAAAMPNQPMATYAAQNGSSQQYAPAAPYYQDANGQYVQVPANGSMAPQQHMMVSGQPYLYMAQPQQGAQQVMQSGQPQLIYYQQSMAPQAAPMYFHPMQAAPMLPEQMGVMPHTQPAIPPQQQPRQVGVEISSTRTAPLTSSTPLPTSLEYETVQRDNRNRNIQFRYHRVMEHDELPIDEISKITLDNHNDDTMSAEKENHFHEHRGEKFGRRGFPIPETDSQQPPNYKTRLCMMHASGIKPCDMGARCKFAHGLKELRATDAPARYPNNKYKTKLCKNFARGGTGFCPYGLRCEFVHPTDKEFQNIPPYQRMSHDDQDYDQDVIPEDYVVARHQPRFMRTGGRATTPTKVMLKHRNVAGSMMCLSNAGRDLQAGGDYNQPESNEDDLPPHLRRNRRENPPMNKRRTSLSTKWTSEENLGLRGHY

[16] = molecular target: Albumin (Bos taurus, UniProt P02769); assay: Counterscreen for inhibitors of T-cell receptor (TCR)-CD3 interaction: Fluorescence-based biochemical high throughput dose response assay to identify inhibitors of T-cell receptor (TCR)-CD3 interaction using a TAMRA-labeled BSA probe.; format: functional
Chain of Albumin (P02769 whole entry): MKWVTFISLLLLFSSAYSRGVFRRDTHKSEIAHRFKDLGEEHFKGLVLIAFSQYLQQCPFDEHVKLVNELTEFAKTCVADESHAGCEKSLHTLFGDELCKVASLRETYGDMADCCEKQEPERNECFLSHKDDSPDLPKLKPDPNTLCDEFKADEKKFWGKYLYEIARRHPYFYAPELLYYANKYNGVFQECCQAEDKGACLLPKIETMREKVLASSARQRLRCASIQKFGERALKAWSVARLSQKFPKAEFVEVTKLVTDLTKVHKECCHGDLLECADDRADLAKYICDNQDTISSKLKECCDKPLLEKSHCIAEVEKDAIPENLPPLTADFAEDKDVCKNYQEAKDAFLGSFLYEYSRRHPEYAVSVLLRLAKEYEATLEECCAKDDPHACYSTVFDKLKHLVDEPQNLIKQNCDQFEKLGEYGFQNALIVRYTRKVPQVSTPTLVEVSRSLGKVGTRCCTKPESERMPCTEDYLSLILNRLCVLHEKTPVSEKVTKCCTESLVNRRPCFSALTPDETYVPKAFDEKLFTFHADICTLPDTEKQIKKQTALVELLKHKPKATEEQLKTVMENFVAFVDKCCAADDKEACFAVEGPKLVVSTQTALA

Chain of RNA-editing ligase 1, mitochondrial (P86926 whole entry): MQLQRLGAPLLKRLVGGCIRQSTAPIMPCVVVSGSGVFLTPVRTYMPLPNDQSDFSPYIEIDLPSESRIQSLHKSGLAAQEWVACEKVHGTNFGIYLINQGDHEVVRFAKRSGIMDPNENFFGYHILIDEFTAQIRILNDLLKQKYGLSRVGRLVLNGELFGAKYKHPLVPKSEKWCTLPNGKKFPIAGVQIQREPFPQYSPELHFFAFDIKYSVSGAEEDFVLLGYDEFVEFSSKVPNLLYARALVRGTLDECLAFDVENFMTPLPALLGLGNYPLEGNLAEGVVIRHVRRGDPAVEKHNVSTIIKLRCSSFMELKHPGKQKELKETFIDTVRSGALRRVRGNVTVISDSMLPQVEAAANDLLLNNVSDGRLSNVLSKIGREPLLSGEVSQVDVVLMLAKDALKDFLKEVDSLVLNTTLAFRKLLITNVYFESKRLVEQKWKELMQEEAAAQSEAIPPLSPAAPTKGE

SMILES: COc1ccc(-c2cc(-c3ccccc3O)[nH]n2)cc1
- EC50 [1]: > 67.6 µM (inactive)
- EC50 [2]: > 67.6 µM (inactive)
- IC50 [3]: > 67.6 µM (inactive)
- EC50 [4]: > 67.6 µM (inactive)

SMILES: CC(C)Cc1nnc(NC(=O)CSc2nc(O)c(-c3ccccc3)c(O)n2)s1
- IC50 [5]: > 83.3 µM (inactive)
- IC50 [6]: > 109 µM (inactive)

SMILES: COc1ccc(NC(=O)c2cccc(S(=O)(=O)Nc3ccc(Br)cc3)c2)cn1
- IC50 [7]: 8.65 µM (active)
- IC50 [8]: > 20 µM (inactive)
- EC50 [9]: 11.2 µM (active)
- IC50 [10]: 17.3 µM (active)
- CC50 [11]: 22.8 µM (active)

SMILES: Cc1n[nH]c(S/C(=C/c2ccc(-c3ccc(C(=O)O)cc3)o2)C(=O)O)n1
- IC50 [12]: 18.5 µM (active)
- EC50 [13]: 4.1 µM (active)
- IC50 [14]: 77.9 µM (inactive)
- EC50 [15]: 1.45 µM (active)
- IC50 [16]: > 94.2 µM (inactive)
